Laboratory results: PubChem BioAssay (NCI)
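Where inhibition never reached the appropriate level, the endpoint shown equals the highest concentration tested. Otherwise, values were interpolated linearly from a five-concentration, 48-hour dose response in 96-well plates. TGI is the concentration that stops growth completely.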

Key:
Assay in all cases: NCI-60 cell line screen, 48 h
786-0 renal = test system: 786-0 renal
A498 renal = test system: A498 renal
A549 NSCLC = test system: A549 NSCLC
ACHN renal = test system: ACHN renal
BT-549 breast = test system: BT-549 breast
CAKI-1 renal = test system: CAKI-1 renal
CCRF-CEM leukemia = test system: CCRF-CEM leukemia
COLO 205 colon = test system: COLO 205 colon
DU-145 prostate = test system: DU-145 prostate
EKVX NSCLC = test system: EKVX NSCLC
HCC-2998 colon = test system: HCC-2998 colon
HCT-116 colon = test system: HCT-116 colon
HCT-15 colon = test system: HCT-15 colon
HL-60(TB) leukemia = test system: HL-60(TB) leukemia
HOP-62 NSCLC = test system: HOP-62 NSCLC
HOP-92 NSCLC = test system: HOP-92 NSCLC
HT29 colon = test system: HT29 colon
IGROV1 ovarian = test system: IGROV1 ovarian
KM12 colon = test system: KM12 colon
LOX IMVI melanoma = test system: LOX IMVI melanoma
M14 melanoma = test system: M14 melanoma
MCF7 breast = test system: MCF7 breast
MDA-MB-231 breast = test system: MDA-MB-231 breast
MDA-MB-435 = test system: MDA-MB-435
MDA-N = test system: MDA-N
MOLT-4 leukemia = test system: MOLT-4 leukemia
NCI-H226 lung = test system: NCI-H226 lung
NCI-H23 lung = test system: NCI-H23 lung
NCI-H522 lung = test system: NCI-H522 lung
NCI/ADR-RES ovarian = test system: NCI/ADR-RES ovarian
OVCAR-3 ovarian = test system: OVCAR-3 ovarian
OVCAR-4 ovarian = test system: OVCAR-4 ovarian
OVCAR-5 ovarian = test system: OVCAR-5 ovarian
OVCAR-8 ovarian = test system: OVCAR-8 ovarian
PC-3 prostate = test system: PC-3 prostate
RPMI-8226 leukemia = test system: RPMI-8226 leukemia
SF-295 CNS = test system: SF-295 CNS
SF-539 CNS = test system: SF-539 CNS
SK-MEL-2 melanoma = test system: SK-MEL-2 melanoma
SK-MEL-28 melanoma = test system: SK-MEL-28 melanoma
SK-MEL-5 melanoma = test system: SK-MEL-5 melanoma
SK-OV-3 ovarian = test system: SK-OV-3 ovarian
SN12C renal = test system: SN12C renal
SNB-19 CNS = test system: SNB-19 CNS
SR leukemia = test system: SR leukemia
SW-620 colon = test system: SW-620 colon
T-47D breast = test system: T-47D breast
TK-10 renal = test system: TK-10 renal
U251 CNS = test system: U251 CNS
UACC-257 melanoma = test system: UACC-257 melanoma
UACC-62 melanoma = test system: UACC-62 melanoma
UO-31 renal = test system: UO-31 renal
HS 578T breast = test system: HS 578T breast
K-562 leukemia = test system: K-562 leukemia
MALME-3M melanoma = test system: MALME-3M melanoma
NCI-H460 lung = test system: NCI-H460 lung
RXF 393 renal = test system: RXF 393 renal
SF-268 CNS = test system: SF-268 CNS
SNB-75 CNS = test system: SNB-75 CNS

## COC(=O)Nc1cc(OCCCOC(C)=O)c2[nH]c(C(=O)OC)cc2c1C[C@H](O)CO
786-0 renal
  TGI: > 100 µM
A498 renal
  TGI: > 100 µM
A549 NSCLC
  TGI: > 100 µM
ACHN renal
  TGI: > 100 µM
BT-549 breast
  TGI: > 100 µM
CAKI-1 renal
  TGI: > 100 µM
CCRF-CEM leukemia
  TGI: > 100 µM
COLO 205 colon
  TGI: > 100000 nM
DU-145 prostate
  TGI: > 100 µM
EKVX NSCLC
  TGI: > 100 µM
HCC-2998 colon
  TGI: > 100 µM
HCT-116 colon
  TGI: > 100 µM
HCT-15 colon
  TGI: > 100 µM
HL-60(TB) leukemia
  TGI: > 100000 nM
HOP-62 NSCLC
  TGI: > 100 µM
HOP-92 NSCLC
  TGI: > 100 µM
HT29 colon
  TGI: > 100 µM
IGROV1 ovarian
  TGI: > 100 µM
KM12 colon
  TGI: > 100 µM
LOX IMVI melanoma
  TGI: > 100 µM
M14 melanoma
  TGI: > 100000 nM
MCF7 breast
  TGI: > 100 µM
MDA-MB-231 breast
  TGI: > 100 µM
MDA-MB-435
  TGI: > 100 µM
MDA-N
  TGI: > 100 µM
MOLT-4 leukemia
  TGI: > 100000 nM
NCI-H226 lung
  TGI: > 100000 nM
NCI-H23 lung
  TGI: > 100 µM
NCI-H522 lung
  TGI: 26.9 µM
NCI/ADR-RES ovarian
  TGI: > 100000 nM
OVCAR-3 ovarian
  TGI: > 100 µM
OVCAR-4 ovarian
  TGI: > 100 µM
OVCAR-5 ovarian
  TGI: > 100 µM
OVCAR-8 ovarian
  TGI: > 100 µM
PC-3 prostate
  TGI: > 100 µM
RPMI-8226 leukemia
  TGI: > 100 µM
SF-295 CNS
  TGI: > 100 µM
SF-539 CNS
  TGI: > 100 µM
SK-MEL-2 melanoma
  TGI: > 100 µM
SK-MEL-28 melanoma
  TGI: > 100 µM
SK-MEL-5 melanoma
  TGI: > 100000 nM
SK-OV-3 ovarian
  TGI: > 100 µM
SN12C renal
  TGI: > 100 µM
SNB-19 CNS
  TGI: > 100 µM
SR leukemia
  TGI: > 100 µM
SW-620 colon
  TGI: > 100 µM
T-47D breast
  TGI: > 100 µM
TK-10 renal
  TGI: > 100 µM
U251 CNS
  TGI: > 100 µM
UACC-257 melanoma
  TGI: > 100000 nM
UACC-62 melanoma
  TGI: > 100000 nM
UO-31 renal
  TGI: > 100 µM

## C/C(=N/NC(=S)Nc1ccc(C)cc1)c1ccccn1
786-0 renal
  TGI: 12.7 µM
A498 renal
  TGI: 15.9 µM
A549 NSCLC
  TGI: 14 µM
ACHN renal
  TGI: 11.9 µM
BT-549 breast
  TGI: 18.7 µM
CAKI-1 renal
  TGI: 13.9 µM
CCRF-CEM leukemia
  TGI: 4.64 µM
COLO 205 colon
  TGI: 1950 nM
DU-145 prostate
  TGI: 10.4 µM
EKVX NSCLC
  TGI: 5.12 µM
HCC-2998 colon
  TGI: 18.6 µM
HCT-116 colon
  TGI: 13 µM
HCT-15 colon
  TGI: 17.6 µM
HL-60(TB) leukemia
  TGI: 608 nM
HOP-62 NSCLC
  TGI: 5.55 µM
HOP-92 NSCLC
  TGI: 12.5 µM
HS 578T breast
  TGI: 17 µM
HT29 colon
  TGI: 19.4 µM
IGROV1 ovarian
  TGI: 13.6 µM
K-562 leukemia
  TGI: 6.09 µM
KM12 colon
  TGI: 15.5 µM
LOX IMVI melanoma
  TGI: 20.8 µM
M14 melanoma
  TGI: 2370 nM
MALME-3M melanoma
  TGI: 8.71 µM
MCF7 breast
  TGI: 16.6 µM
MDA-MB-231 breast
  TGI: 18.7 µM
MDA-MB-435
  TGI: 15 µM
MDA-N
  TGI: 13.8 µM
MOLT-4 leukemia
  TGI: 2530 nM
NCI-H226 lung
  TGI: 2600 nM
NCI-H23 lung
  TGI: 16.1 µM
NCI-H460 lung
  TGI: 7.95 µM
NCI-H522 lung
  TGI: 12 µM
NCI/ADR-RES ovarian
  TGI: 1340 nM
OVCAR-3 ovarian
  TGI: 12.2 µM
OVCAR-4 ovarian
  TGI: 17.2 µM
OVCAR-5 ovarian
  TGI: 9.55 µM
OVCAR-8 ovarian
  TGI: 7.51 µM
PC-3 prostate
  TGI: 13.7 µM
RPMI-8226 leukemia
  TGI: 25.7 µM
RXF 393 renal
  TGI: 11 µM
SF-268 CNS
  TGI: 16.4 µM
SF-295 CNS
  TGI: 11.8 µM
SF-539 CNS
  TGI: 7.41 µM
SK-MEL-2 melanoma
  TGI: 13.9 µM
SK-MEL-28 melanoma
  TGI: 24.3 µM
SK-MEL-5 melanoma
  TGI: 2290 nM
SK-OV-3 ovarian
  TGI: 17 µM
SN12C renal
  TGI: 7.65 µM
SNB-19 CNS
  TGI: 20.6 µM
SNB-75 CNS
  TGI: 17.2 µM
SW-620 colon
  TGI: 18.6 µM
TK-10 renal
  TGI: 6.77 µM
U251 CNS
  TGI: 14.8 µM
UACC-257 melanoma
  TGI: 802 nM
UACC-62 melanoma
  TGI: 2640 nM
UO-31 renal
  TGI: 12.6 µM
